According to patent US6455466B1, “Compositions and methods for preventing leaf yellowing in plants” (The Regents of the University of California, priority 2000, dated 2002):

Key:
[1] = tested on: plants; details: cited from earlier work
[2] = tested on: cut flowers of Alstroemeria (cv. diamond); experiment: Leaf chlorophyll content / leaf yellowing of cut Alstroemeria flowers held in treatment solution; assay type: in vivo
Description: The model system used in the experiments was cut stems of Alstroemeria an important cut flower whose flowers normally long outlast the relatively short-lived leaves.
In a preliminary experiment with cut flowers of Alstroemeria (cv. diamond), the flowers were placed in deionized water (DI) or a solution containing 1 μM TDZ. The chlorophyll content of the leaves was measured as described by Lichenhaler, Methods in Enzymology […] (1987). […] By 20 days, there was no detectable chlorophyll in the leaves of the control flowers (see, FIG. 1).

O=C(Nc1ccccc1)Nc1cnns1 [TDZ, 1-phenyl-3-(1,2,3-thiadiazol-5-yl)urea]
metabolism by plants [1]: plants do not metabolize it | chlorophyll content of the leaves versus flowers held in deionized water ([2]; 1 μM TDZ solution, by 10 days): significantly higher than the concentration in leaves of flowers held in DI | effectiveness of 24 hour pulse pre-treatment ([2]; 24 hour pulse pre-treatment with 10 μM TDZ compared with continuous 1 μM TDZ): as effective as continuous treatment with 1 μM TDZ | chlorophyll content of the leaves ([2]; cut Alstroemeria flowers placed in solution containing 1 μM TDZ, throughout the experiment (FIG. 1)): remained high throughout the experiment | effectiveness compared with BAP or GA3 ([2]; subsequent experiments, cut Alstroemeria flowers): much more effective than BAP or GA3
